Where two headings read alike, the source gives them in different places. Residues, ends and D or L forms follow the SMILES beside them. No end group written: not given here.
How the values were obtained:
[1] = pepsin hydrolyzed peptides from porcine skeletal myosin B; ref [9]; cited from earlier work
Source text: Meat and meat products are excellent sources of ACE-inhibitory peptides. ACE-inhibitory peptides from animal proteins can be produced by several methods, including enzymatic hydrolysis and fermentation. […] The pepsin hydrolyzed peptide Lys-Arg-Val-Ile-Gln-Try and the Val-Lys-Ala-Gly-Ph sequence from por ...

ACE = settings: cited from earlier work; for IC50: read-out: IC50 value (ACE inhibition)
Description: According to a previous study, “Cangkuk” is made from fresh beef to which bamboo shoots, rice and salt are added. The treatment evaluated in the current research was addition of bamboo shoots with different preparation methods (chopped, ground, and extracted) and varied meat:bamboo shoot ratios (1:0.75, 1:1, and 1:1.25). Then, these preparations were fermented under anaerobic conditions at room temperature for seven days. It was reported that all treatments had ACE-inhibitory activities ranging from 43% to 80%. […] EAPLNPKANR, is a fragment of the 3rd to 12th amino acid sequence of LTEAPLNPKANREK [25]. […] The presence of hydrophobic amino acids such as isoleucine, valine, and glycine in the sequence has been associated with ACE-inhibitory activity.

SHRs = settings: cited from earlier work
Source text: Meat and meat products are excellent sources of ACE-inhibitory peptides. ACE-inhibitory peptides from animal proteins can be produced by several methods, including enzymatic hydrolysis and fermentation. […] The higher the dose, the greater the decrease in SBPs. […] There is strong association between ACE inhibition and the antihypertensive effects of a bioactive peptide owing to its structure, size, chain length, type and order of amino acids ... || (+ 1 further places)

[2] = target: T1, Angiotensin converting enzyme (from rabbit lung) (Oryctolagus cuniculus, UniProt P12822); test: ACE-inhibitory activity, hippuric acid liberated from Hip-His-Leu (Cushman and Cheung, modified); format: biochemical; settings: synthetic peptides, purity 80%, sodium borate buffer pH 8.3, Hip-His-Leu 7.6 mM, NaCl 608 mM, pre-incubation 5 min, incubation 30 min, 37°C, 228 nm
T1 construct: Angiotensin converting enzyme (from rabbit lung); purchased Sigma-Aldrich Co. (St. Louis, MO, USA); host or cells: rabbit lung (tissue-derived)
T1 sequence (P12822 34-1310): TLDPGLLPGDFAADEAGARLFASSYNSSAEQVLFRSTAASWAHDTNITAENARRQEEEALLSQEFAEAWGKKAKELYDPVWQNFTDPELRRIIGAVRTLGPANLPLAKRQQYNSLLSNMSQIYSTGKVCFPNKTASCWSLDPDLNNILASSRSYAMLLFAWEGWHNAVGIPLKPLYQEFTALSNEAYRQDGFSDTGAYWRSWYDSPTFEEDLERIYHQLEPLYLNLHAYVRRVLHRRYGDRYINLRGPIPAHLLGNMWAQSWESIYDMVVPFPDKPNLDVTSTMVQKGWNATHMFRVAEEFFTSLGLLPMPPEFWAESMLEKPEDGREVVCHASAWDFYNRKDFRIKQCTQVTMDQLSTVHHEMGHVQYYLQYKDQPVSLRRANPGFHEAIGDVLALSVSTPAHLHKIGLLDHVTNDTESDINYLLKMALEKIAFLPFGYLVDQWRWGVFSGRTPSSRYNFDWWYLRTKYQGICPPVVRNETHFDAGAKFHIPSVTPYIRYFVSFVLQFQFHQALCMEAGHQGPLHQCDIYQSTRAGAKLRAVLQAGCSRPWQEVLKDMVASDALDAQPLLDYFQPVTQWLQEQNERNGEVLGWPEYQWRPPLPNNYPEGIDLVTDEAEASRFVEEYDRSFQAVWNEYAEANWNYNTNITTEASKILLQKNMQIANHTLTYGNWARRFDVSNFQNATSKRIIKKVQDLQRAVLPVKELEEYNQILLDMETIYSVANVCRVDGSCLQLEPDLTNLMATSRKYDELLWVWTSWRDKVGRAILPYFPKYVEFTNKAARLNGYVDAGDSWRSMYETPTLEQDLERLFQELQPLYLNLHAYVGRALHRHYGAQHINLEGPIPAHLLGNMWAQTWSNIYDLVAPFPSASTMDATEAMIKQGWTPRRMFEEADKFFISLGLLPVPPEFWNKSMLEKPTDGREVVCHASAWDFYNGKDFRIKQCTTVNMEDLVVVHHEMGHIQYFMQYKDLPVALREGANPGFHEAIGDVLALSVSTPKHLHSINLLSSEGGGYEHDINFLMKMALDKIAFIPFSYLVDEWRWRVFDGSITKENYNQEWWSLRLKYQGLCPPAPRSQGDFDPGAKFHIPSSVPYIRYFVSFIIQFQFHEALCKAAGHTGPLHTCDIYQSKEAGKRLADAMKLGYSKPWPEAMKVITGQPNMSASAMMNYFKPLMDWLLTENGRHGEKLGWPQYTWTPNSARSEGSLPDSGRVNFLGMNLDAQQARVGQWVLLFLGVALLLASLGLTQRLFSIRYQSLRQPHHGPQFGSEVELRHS
Source text: The raw materials used in processing Cangkuk were fresh beef meat (brisket) from male Bali cattle, aged 2.5 to 3 years, purchased from the Animal Slaughtering House in Pekanbaru City. Green bamboo shoots were harvested from local farms. The additional ingredients were cooked rice, salt and distilled water. Angiotensin converting enzyme (from rabbit lung) and the substrate, hippuryl-L-histidyl-leucine, were purchased from Sigma-Aldrich Co. (St. Louis, MO, USA). All the chemicals and reagents used were of analytical grade.
ACE-inhibitory activity was analyzed according to the method of Cushman and Cheung with modifications by Arihara et al. This assay is based on liberation of hippuric acid from Hip-His-Leu catalyzed by ACE. A sample solution (15 μL) was mixed with 125 μL of a 100 mM sodium borate buffer (pH 8.3) containing 7.6 mM Hyp-Hys-Leu and 608 mM NaCl followed by pre-incubation for 5 min at 37°C. The reaction was initiated by adding 50 μL of ACE dissolved in distilled water, and the mixture was incubated for 30 min at 37°C. The reaction was stopped by adding 125 μL of 1 N HCl. […] Hippuric acid was dissolved with 1 mL of distilled water and its concentration spectrophotometrically determined at 228 nm. ACE inhibitory activity was calculated as: […]
where A, absorbance of the sample reaction; B, absorbance of the blank; and C, absorbance of the control (distilled water).

In the case of Val-Lys-Ala-Gly-Ph, the “antihypertensive effects in vivo (in words)” value [1] is listed as “showed antihypertensive effects in vivo”.
For IVGRPRHQG, the IC50 (ACE; nonapeptide from Katsuobusi, ref [26]) is listed as 6.2 µM.
In the case of “LIVGIIRCV [nonapeptide from beef myofibrillar protein hydrolysate]”, the “antihypertensive effect in SHRs (in words)” value (SHRs; alkaline-AK-pepsin hydrolyzed peptide from beef myofibrillar protein, ref [8]) is listed as “had an antihypertensive effect in SHRs”.
For “Lys-Arg-Val-Ile-Gln-Try [pepsin hydrolyzed peptide from porcine skeletal myosin B]”, the “antihypertensive effects in vivo (in words)” value [1] is given as “showed antihypertensive effects in vivo”.
In the case of WGAP, the “reduction of SBP” value (SHRs; 100 mg/kg BW oral, SHRs, 4 h after administration, ref [33]) is listed as “up to 42.6 mmHg”.
For LTEAPLNPKANREK, the IC50 (ACE; peptide from goat meat hydrolysate (pepsin, trypsin, chymotrypsin), ref [25]) is given as 120 µM.
For EAPLNPKANR [EAPLNPKANR], the IC50 [2] was 44.6 µM.
In the case of IKEVTER, the “ACE-inhibitory activity (in words)” value (ACE; peptide from venison treated with pepsin-trypsin-pancreatin, ref [28]) is listed as “strong ACE-inhibitory activity”.
Work on CC[C@H](C)[C@H](N)C(=O)N[C@H](C(=O)NCC(=O)O)C(C)C [IVG] (H-Ile-Val-Gly-OH) yielded an IC50 [2] of 97.3 µM.
In the case of “IVDR [tetrapeptide from Paralichthys olivaceus surimi]”, the “ACE inhibitory activity (in words)” value (ACE; tetrapeptide from Paralichthys olivaceus surimi, ref [31]) is listed as “high ACE inhibitory activity” and the “decrease of blood pressure in SHRs (in words)” value (SHRs; 6 h after administration, ref [31]) is listed as “could decrease blood pressure in SHRs 6 h after its administration”.

Source: PMC11366520, “Purification of angiotensin converting enzyme inhibitory peptides and antihypertensive effect generated from Indonesian traditional fermented beef (Cangkuk)” (Animal Bioscience, 2024)
